A word on the logD: it is the decadic logarithm of the distribution of all forms, ionised or not, between an organic phase and buffer at a given pH. High values mean a more lipophilic compound, low ones a more hydrophilic compound. The term half-life denotes the time in which the quantity being followed falls by half. A lower half-life goes with fast loss.

The values that follow come from PMC12655185 (Pharmaceuticals, 2025).

The nature of series [1]: Stability in human serum (radio-HPLC, LC-MS). In kind it is in vitro ADME. The conditions noted are these: for remaining at 24 h: read-out: radioligand intact after 24 h in human serum. On the procedure: For human serum stability investigation, 60 μL of the ^67Ga labeling mixture was mixed with 540 μL human serum and incubated at 37 °C. Aliquots of 25 μL were taken after 1, 2, 4 and 24 h. The aliquots were mixed with 75 μL of a mixture called “Supersol” (20% v/v EtOH, 0.5% Triton X-100, 5 mM EDTA, 0.5 mM o-phenantroline, and 0.1% saponine in water) and put on ice for 5 min. Subsequently, the mixtures were centrifuged at 16,100 rcf, 4 °C for 5 min. The supernatant was analyzed by analytical radio-HPLC. Serum half-lives were determined by non-linear regression according to one-phase decay. To determine the stability in labeling buffer, the labeling mixture was left at ambient temperature for 4 h. Subsequently, an aliquot of 5 μL was mixed with 45 μL of Supersol and analyzed with analytical radio-HPLC.
Analytical radio-HPLC was performed on a modular unit consisting of an operating unit (smartline manager 500, Knauer, Berlin, Germany), a pump unit (smartline pump 1000, Knauer, Berlin, Germany), a photo diode array detector (smartline PDA 2800, Knauer, Berlin, Germany) and a γ-detector (Ramona Star, Raytest, Lüttich, Belgium). The system was operated by the software Chromgate 2.8. Chromatography was conducted on a C18 column (Eurospher 100-5, 250 × 4 mm, Knauer, Berlin, Germany) at a flow rate of 1 mL/min.

The nature of series [2]: LogD7.4 determination (octanol/PBS). The class given is physicochemical. The settings on record: octanol / PBS pH 7.4. As to the method: The obtained solutions from ^67Ga labeling were diluted with water in a 1:1 ratio and brought to pH 7 using aqueous NaOH (1 M). For LogD7.4 determination, 10 μL of neutralized labeling solution was diluted with 290 μL 1× PBS (pH 7.4) and 300 μL 1-Octanol (both pre-saturated by each other). The mixture was vortexed vigorously for 30 s and subsequently centrifuged for 5 min at 16,100 rcf. Defined volumes of each layer (10 μL for PBS, 200 μL for Octanol) were taken and analyzed for their radioactivity (ISOMED 100, Nuvia, Frankfurt, Germany). The partition coefficient LogD7.4 was determined from the decadic logarithm of the fraction of the radioactivity content of the aqueous and octanol layers.

A further series is described as follows: human serum. The conditions noted are these: up to 24 h.

Where a SMILES comes first, the peptide text is derived from it. [ ]: non-standard residue; d: D form. The star is where a group is joined. X1 = O=C(O)CN1CCN(CC(=O)O)CCN([C@H](CCC(=O)*)C(=O)O)CC1; Sar = CNCC(=O)O

On to `CC[C@H](C)[C@H](NC(=O)[C@H](CC(N)=O)NC(=O)[C@@H]1CCCN1C(=O)[C@@H]1CCCN1C(=O)[C@H](CCCNC(=N)N)NC(=O)[C@H](CC(=O)O)NC(=O)[C@H](CC(N)=O)NC(=O)[C@@H](N)CO)C(=O)N[C@@H](CC(C)C)C(=O)N[C@@H](CCC(N)=O)C(=O)N[C@@H](CCCCN)C(=O)N[C@@H](CCCNC(=N)N)C(=O)N(C)CC(=O)N(C)CC(=O)N(C)CC(=O)N[C@@H](CCCCNC(=O)CC[C@H](C(=O)O)N1CCN(CC(=O)O)CCN(CC(=O)O)CC1)C(N)=O` [TJ12P2(K^11)-X3K-[^67Ga]Ga-NODA-GA-CONH2, metal not drawn] (H-SNDRPPNILQKR[Sar][Sar][Sar]K(X1)-NH2), for which the remaining at 24 h in series [1] (37 °C) stood at 89%. In addition, the logD in series [2] was -4.79 ± 0.03.

In the case of `CC[C@H](C)[C@H](NC(=O)[C@H](CC(N)=O)NC(=O)[C@@H]1CCCN1C(=O)[C@@H]1CCCN1C(=O)[C@H](CCCNC(=N)N)NC(=O)[C@H](CC(=O)O)NC(=O)[C@H](CC(N)=O)NC(=O)[C@@H](N)CO)C(=O)N[C@@H](CC(C)C)C(=O)N[C@@H](CCC(N)=O)C(=O)N[C@@H](CCC(N)=O)C(=O)N[C@@H](CCCNC(=N)N)C(=O)N(C)CC(=O)N(C)CC(=O)N(C)CC(=O)N[C@@H](CCCCNC(=O)CC[C@H](C(=O)O)N1CCN(CC(=O)O)CCN(CC(=O)O)CC1)C(N)=O` [TJ12P2(Q^11)-X3K-[^67Ga]Ga-NODA-GA-CONH2, metal not drawn] (H-SNDRPPNILQQR[Sar][Sar][Sar]K(X1)-NH2), the remaining at 24 h in series [1] (37 °C) is 95%. In addition, the logD in series [2] was -4.61 ± 0.05.

For `CC[C@H](C)[C@H](NC(=O)[C@H](CC(N)=O)NC(=O)[C@@H]1CCCN1C(=O)[C@@H]1CCCN1C(=O)[C@H](CCCNC(=N)N)NC(=O)[C@H](CC(=O)O)NC(=O)[C@H](CC(N)=O)NC(=O)[C@H](CO)NC(=O)CC[C@H](C(=O)O)N1CCN(CC(=O)O)CCN(CC(=O)O)CC1)C(=O)N[C@@H](CC(C)C)C(=O)N[C@@H](CCC(N)=O)C(=O)N[C@@H](CCCCN)C(=O)N[C@@H](CCCNC(=N)N)C(=O)O` [[^67Ga]Ga-NODA-GA-TJ12P2(K^11), metal not drawn] (X1-SNDRPPNILQKR-OH), the remaining at 1 h in series [1] (37 °C, 1 h, read-out: radioligand intact after 1 h in human serum) came to 9.3%. This compound yielded a half-life in series [1] (human, serum, 37 °C, one-phase decay) of 17.4 min. Moreover, the “degradation product in human serum” value in series [1] (radio-HPLC or LC-MS after 24 h) is recorded as “formation of a single metabolite”. The compound further had a logD in series [2] of -4.78 ± 0.05.

For `CC[C@H](C)[C@H](NC(=O)[C@H](CC(N)=O)NC(=O)[C@@H]1CCCN1C(=O)[C@@H]1CCCN1C(=O)[C@H](CCCNC(=N)N)NC(=O)[C@H](CC(=O)O)NC(=O)[C@H](CC(N)=O)NC(=O)[C@H](CO)NC(=O)CC[C@H](C(=O)O)N1CCN(CC(=O)O)CCN(CC(=O)O)CC1)C(=O)N[C@@H](CC(C)C)C(=O)N[C@@H](CCC(N)=O)C(=O)N[C@@H](CCC(N)=O)C(=O)N[C@@H](CCCNC(=N)N)C(=O)O` [[^67Ga]Ga-NODA-GA-TJ12P2(Q^11), metal not drawn] (X1-SNDRPPNILQQR-OH), the remaining at 24 h in series [1] (37 °C) came to 72%. The logD in series [2] was -4.79 ± 0.03.

Consider SNDRPPNILQQRXXXK(NODA-GA), for which, in “human serum” (37 °C), the not cleaved is listed as 95% still intact after 24 h.

Turning to SulfoCy3-SNDRPPNILQKR, the cleaved bond result in the series “human serum” is recorded as “Lys11-arginine”.
